Each structure is given as a SMILES string. Where two headings read alike, the source gives them in different places.

Assay type in all cases: biochemical
Experiment [1] concerns the target CDK1/CCNB1 (Homo sapiens, UniProt P06493). In words: CDK1 homogeneous time-resolved fluorescence (HTRF) kinase assay. The note with it: CDK1/CCNB. Put shortly: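 0.5 nM CDK1/CCNB1 was preincubated 20 min at 23 °C with compound in HEPES pH-unspecified buffer (MgCl2, EGTA, DTT, Tween 20), then reacted 60 min with 1 mM ATP and 50 nM ULight-4E-BP1 (Thr37/46) peptide. EDTA-stopped reactions were detected with 2 nM Eu-anti-phospho antibody; IC50 from 11-point half-log titrations.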
(Time-resolved FRET reads energy transfer from a long-lived donor to a nearby acceptor.)

Experiment [2] deals with CDK6/CCND1 (Homo sapiens, UniProt Q00534). The experiment can be described thus: CDK6 homogeneous time-resolved fluorescence (HTRF) kinase assay. As to conditions: CDK6/CCND. The gist of the method: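 Recombinant CDK6/CCND1 (1 nM final) was preincubated with compound for 20 min at 23 °C in HEPES buffer with MgCl2, EGTA, DTT and Tween 20. Kinase reaction then ran 60 min at 23 °C with 1 mM ATP and 50 nM ULight-4E-BP1 (Thr37/46) peptide, and was stopped with EDTA.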

For experiment [3], the target named is CDK4/CCND3 (Homo sapiens, UniProt P11802). In words: CDK4 homogeneous time-resolved fluorescence (HTRF) kinase assay. As to conditions: CDK4/CCND. Put shortly:
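HTRF kinase assay, CDK4/CCND3 1.5 nM, ATP 1 mM, ULight-4E-BP1 peptide 50 nM, 23 °C, 60 min reaction after 20 min preincubation. Eu-anti-pThr37/46 antibody detection. 11-pt half-log curves from 10 μM → IC50.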

Experiment [4] addresses CDK2/CCNE1 (Homo sapiens, UniProt P24941). In words: CDK2 homogeneous time-resolved fluorescence (HTRF) kinase assay. As to conditions: CDK2/CCNE. The gist of the method:
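IC50 derived from 11-point, half-log dilutions (usually top 10 μM) of compound, 1% DMSO. Kinase (3 nM CDK2/CCNE1) was preincubated with compound 20 min, then phosphorylated 50 nM ULight-4E-BP1 peptide at 1 mM ATP for 60 min, 23 °C. Europium-antibody TR-FRET read after EDTA stop.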

[5] abbreviates: >250 nM marked x, read-out: CDK1/CCNB IC50 >250 nM.
Setting [6] is: >250 nM marked x, read-out: CDK6/CCND IC50 >250 nM.
The mark [7] stands for this setting: >250 nM marked x, read-out: CDK4/CCND IC50 >250 nM.
Setting [8] is: 25-250 nM marked x, read-out: CDK2/CCNE IC50 25-250 nM.
[9] abbreviates: <25 nM, read-out: CDK2/CCNE IC50 <25 nM.
The mark [10] stands for this setting: 25-250 nM marked x, read-out: CDK1/CCNB IC50 25-250 nM.
Setting [11] is: 25-250 nM marked x, read-out: CDK4/CCND IC50 25-250 nM.

CDK4/CCND3, sequence (P11802 whole entry): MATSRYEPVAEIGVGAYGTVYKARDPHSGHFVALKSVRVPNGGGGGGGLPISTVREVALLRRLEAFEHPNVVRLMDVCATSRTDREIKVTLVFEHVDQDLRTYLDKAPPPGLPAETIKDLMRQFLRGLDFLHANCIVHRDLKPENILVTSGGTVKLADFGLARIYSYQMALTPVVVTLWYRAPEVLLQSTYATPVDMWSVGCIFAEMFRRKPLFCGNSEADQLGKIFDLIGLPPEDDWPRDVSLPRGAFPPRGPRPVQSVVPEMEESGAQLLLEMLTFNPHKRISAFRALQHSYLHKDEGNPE
CDK4/CCND3, sequence (P30281 whole entry partner): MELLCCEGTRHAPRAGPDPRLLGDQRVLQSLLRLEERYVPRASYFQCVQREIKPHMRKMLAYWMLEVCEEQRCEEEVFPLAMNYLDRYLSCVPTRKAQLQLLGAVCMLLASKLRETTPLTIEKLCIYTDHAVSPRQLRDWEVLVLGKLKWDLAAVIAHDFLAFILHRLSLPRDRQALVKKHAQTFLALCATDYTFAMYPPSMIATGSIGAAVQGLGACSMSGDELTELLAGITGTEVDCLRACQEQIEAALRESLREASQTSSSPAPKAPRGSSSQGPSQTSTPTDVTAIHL
CDK6/CCND1, sequence (Q00534 whole entry): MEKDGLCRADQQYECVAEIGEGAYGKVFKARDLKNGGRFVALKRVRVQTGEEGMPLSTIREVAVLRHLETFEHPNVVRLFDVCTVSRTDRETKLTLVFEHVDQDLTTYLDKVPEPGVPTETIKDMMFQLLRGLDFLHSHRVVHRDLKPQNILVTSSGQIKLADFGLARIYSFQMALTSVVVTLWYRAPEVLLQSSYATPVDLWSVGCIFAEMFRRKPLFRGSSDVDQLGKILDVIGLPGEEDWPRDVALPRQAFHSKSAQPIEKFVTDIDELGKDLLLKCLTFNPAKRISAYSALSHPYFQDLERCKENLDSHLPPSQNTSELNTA
CDK6/CCND1, sequence (P24385 whole entry partner): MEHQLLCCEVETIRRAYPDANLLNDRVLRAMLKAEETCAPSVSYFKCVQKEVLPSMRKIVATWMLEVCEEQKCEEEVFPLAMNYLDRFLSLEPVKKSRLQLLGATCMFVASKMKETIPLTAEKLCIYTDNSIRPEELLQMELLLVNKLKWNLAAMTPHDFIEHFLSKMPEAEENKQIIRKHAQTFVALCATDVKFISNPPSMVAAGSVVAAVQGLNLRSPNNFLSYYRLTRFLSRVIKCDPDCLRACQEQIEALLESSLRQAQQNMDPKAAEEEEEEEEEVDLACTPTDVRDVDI
CDK1/CCNB1, sequence (P06493 whole entry): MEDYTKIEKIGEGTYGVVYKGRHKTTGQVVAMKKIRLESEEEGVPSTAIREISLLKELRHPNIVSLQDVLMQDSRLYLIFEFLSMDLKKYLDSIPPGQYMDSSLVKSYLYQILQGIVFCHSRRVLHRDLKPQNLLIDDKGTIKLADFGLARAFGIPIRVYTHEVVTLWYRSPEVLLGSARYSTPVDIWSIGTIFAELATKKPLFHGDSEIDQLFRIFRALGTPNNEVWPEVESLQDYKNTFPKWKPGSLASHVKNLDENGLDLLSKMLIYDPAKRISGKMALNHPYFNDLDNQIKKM
CDK1/CCNB1, sequence (P14635 whole entry partner): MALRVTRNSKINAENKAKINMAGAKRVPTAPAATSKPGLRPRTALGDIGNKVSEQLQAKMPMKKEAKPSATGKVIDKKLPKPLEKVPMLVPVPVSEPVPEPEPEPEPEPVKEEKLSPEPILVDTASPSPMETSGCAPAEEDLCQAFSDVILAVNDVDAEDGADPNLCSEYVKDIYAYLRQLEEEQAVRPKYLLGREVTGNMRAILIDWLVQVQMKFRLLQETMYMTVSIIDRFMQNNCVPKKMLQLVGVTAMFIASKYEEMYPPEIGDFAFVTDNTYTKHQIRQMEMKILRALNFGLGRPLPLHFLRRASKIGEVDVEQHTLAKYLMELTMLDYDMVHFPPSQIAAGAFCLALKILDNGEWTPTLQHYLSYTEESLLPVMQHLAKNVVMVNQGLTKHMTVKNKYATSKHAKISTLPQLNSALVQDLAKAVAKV

For `CCC1(CC)C(=O)Nc2cc(C#Cc3nccc4cnc(Nc5ccc(S(=N)(=O)C6CC(F)(F)C6)cc5)cc34)ccc21` (single isomer, unassigned) [Ex 303, 6-((7-((4-(3,3-difluorocyclobutane-1-sulfonimidoyl)phenyl)amino)-2,6-naphthyridin-1-yl)ethynyl)-3,3-diethylindolin-2-one], the IC50 in experiment [1] (setting [5]) was over 250 nM; in experiment [2] (setting [6]), over 250 nM; in experiment [3] (setting [7]) it was over 250 nM; in experiment [4] (setting [8]), 25 to 250 nM.
On to `COc1cc(S(C)(=N)=O)ccc1Nc1cc2c(C#Cc3ccc4c(c3)NC(=O)C43CC3)nccc2cn1` (single isomer, unassigned) [Ex 305, 6'-((7-((2-methoxy-4-(S-methylsulfonimidoyl)phenyl)amino)-2,6-naphthyridin-1-yl)ethynyl)spiro[cyclopropane-1,3'-indolin]-2'-one], for which the IC50 was over 250 nM in experiment [1] (setting [5]), over 250 nM in experiment [2] (setting [6]), over 250 nM in experiment [3] (setting [7]) and under 25 nM in experiment [4] (setting [9]).
For `N=S(=O)(c1ccc(Nc2cc3c(C#Cc4ccc5c(c4)NC(=O)C54CC4)nccc3cn2)cc1)C1CC1` (single isomer, unassigned) [Ex 306, 6'-((7-((4-(cyclopropanesulfonimidoyl)phenyl)amino)-2,6-naphthyridin-1-yl)ethynyl)spiro[cyclopropane-1,3'-indolin]-2'-one], the IC50 in experiment [1] (setting [10]) was 25 to 250 nM; in experiment [2] (25-250 nM marked x, read-out: CDK6/CCND IC50 25-250 nM) it was 25 to 250 nM; in experiment [3] (setting [11]) it was 25 to 250 nM; in experiment [4] (setting [9]) it was under 25 nM.
For `CCC1(CC)C(=O)Nc2cc(C#Cc3nccc4cnc(Nc5ccc(S(=N)(=O)CC)cc5OC)cc34)ccc21` (single isomer, unassigned) [Ex 308, 3,3-diethyl-6-((7-((4-(ethylsulfonimidoyl)-2-methoxyphenyl)amino)-2,6-naphthyridin-1-yl)ethynyl)indolin-2-one], the IC50 was over 250 nM in experiment [1] (setting [5]), over 250 nM in experiment [2] (setting [6]), over 250 nM in experiment [3] (setting [7]) and 25 to 250 nM in experiment [4] (setting [8]).
Take `CCS(=N)(=O)c1ccc(Nc2cc3c(C#Cc4ccc5c(c4)NC(=O)C54CCC4)nccc3cn2)c(OC)c1` (single isomer, unassigned) [Ex 310, 6'-((7-((4-(ethylsulfonimidoyl)-2-methoxyphenyl)amino)-2,6-naphthyridin-1-yl)ethynyl)spiro[cyclobutane-1,3'-indolin]-2'-one]: the IC50 in experiment [1] (setting [5]) was over 250 nM; in experiment [2] (setting [6]) it was over 250 nM; in experiment [3] (setting [7]), over 250 nM; in experiment [4] (setting [9]) it was under 25 nM.
Turning to `COc1cc(S(C)(=N)=O)ccc1Nc1cc2c(C#Cc3ccc4c(c3)NC(=O)C43CCC3)nccc2cn1` (single isomer, unassigned) [Ex 313, 6'-((7-((2-methoxy-4-(S-methylsulfonimidoyl)phenyl)amino)-2,6-naphthyridin-1-yl)ethynyl)spiro[cyclobutane-1,3'-indolin]-2'-one], the IC50 in experiment [1] (setting [5]) is over 250 nM; in experiment [2] (setting [6]) it was over 250 nM; in experiment [3] (setting [7]) it was over 250 nM; in experiment [4] (setting [8]), 25 to 250 nM.
Take `CCC1(CC)C(=O)Nc2cc(C#Cc3nccc4cnc(Nc5ccc(S(=N)(=O)C6COC6)cc5C)cc34)ccc21` (single isomer, unassigned) [Ex 316, 3,3-diethyl-6-((7-((2-methyl-4-(oxetane-3-sulfonimidoyl)phenyl)amino)-2,6-naphthyridin-1-yl)ethynyl)indolin-2-one]: the IC50 in experiment [1] (setting [5]) is over 250 nM; in experiment [2] (setting [6]), over 250 nM; in experiment [3] (setting [7]), over 250 nM; in experiment [4] (setting [9]), under 25 nM.
`CCC1(CC)C(=O)Nc2cc(C#Cc3nccc4cnc(Nc5ccc(S(=N)(=O)C6COC6)cc5OC)cc34)ccc21` (single isomer, unassigned) [Ex 317, 3,3-diethyl-6-((7-((2-methoxy-4-(oxetane-3-sulfonimidoyl)phenyl)amino)-2,6-naphthyridin-1-yl)ethynyl)indolin-2-one]: the IC50 in experiment [1] (setting [5]) is over 250 nM; in experiment [2] (setting [6]), over 250 nM; in experiment [3] (setting [7]) it was over 250 nM; in experiment [4] (setting [8]) it was 25 to 250 nM.
Turning to `CCC1(CC)C(=O)Nc2cc(C#Cc3nccc4cnc(Nc5ccc(S(C)(=N)=O)cc5OC)cc34)ccc21` (single isomer, unassigned) [Ex 319, 3,3-diethyl-6-((7-((2-methoxy-4-(S-methylsulfonimidoyl)phenyl)amino)-2,6-naphthyridin-1-yl)ethynyl)indolin-2-one], the IC50 in experiment [1] (setting [5]) is over 250 nM; in experiment [2] (setting [6]) it was over 250 nM; in experiment [3] (setting [7]), over 250 nM; in experiment [4] (setting [8]), 25 to 250 nM.
For the compound `COc1cc(S(=N)(=O)C2COC2)ccc1Nc1cc2c(C#Cc3ccc4c(c3)NC(=O)C43CC3)nccc2cn1` (single isomer, unassigned) [Ex 323, 6'-((7-((2-methoxy-4-(oxetane-3-sulfonimidoyl)phenyl)amino)-2,6-naphthyridin-1-yl)ethynyl)spiro[cyclopropane-1,3'-indolin]-2'-one], the IC50 in experiment [1] (setting [5]) was over 250 nM; in experiment [2] (setting [6]), over 250 nM; in experiment [3] (setting [7]) it was over 250 nM; in experiment [4] (setting [9]), under 25 nM.
As for `Cc1cc(S(C)(=N)=O)ccc1Nc1cc2c(C#Cc3ccc4c(c3)NC(=O)C43CC3)nccc2cn1` (single isomer, unassigned) [Ex 326, 6'-((7-((2-methyl-4-(S-methylsulfonimidoyl)phenyl)amino)-2,6-naphthyridin-1-yl)ethynyl)spiro[cyclopropane-1,3'-indolin]-2'-one], the IC50 in experiment [1] (setting [10]) is 25 to 250 nM; in experiment [2] (setting [6]) it was over 250 nM; in experiment [3] (setting [11]), 25 to 250 nM; in experiment [4] (setting [9]) it was under 25 nM.
As to `Cc1cc(S(C)(=N)=O)ccc1Nc1cc2c(C#Cc3ccc4c(c3)NC(=O)C43CCC3)nccc2cn1` (single isomer, unassigned) [Ex 332, 6'-((7-((2-methyl-4-(S-methylsulfonimidoyl)phenyl)amino)-2,6-naphthyridin-1-yl)ethynyl)spiro[cyclobutane-1,3'-indolin]-2'-one], the IC50 was over 250 nM in experiment [1] (setting [5]), over 250 nM in experiment [2] (setting [6]), over 250 nM in experiment [3] (setting [7]) and under 25 nM in experiment [4] (setting [9]).
Regarding `COc1cc(S(=N)(=O)C(C)C)ccc1Nc1cc2c(C#Cc3ccc4c(c3)NC(=O)C43CC3)nccc2cn1` (single isomer, unassigned) [Ex 334, 6'-((7-((2-methoxy-4-(propan-2-ylsulfonimidoyl)phenyl)amino)-2,6-naphthyridin-1-yl)ethynyl)spiro[cyclopropane-1,3'-indolin]-2'-one], the IC50 in experiment [1] (setting [5]) was over 250 nM; in experiment [2] (setting [6]) it was over 250 nM; in experiment [3] (setting [7]) it was over 250 nM; in experiment [4] (setting [9]), under 25 nM.
Consider `CCC1(CC)C(=O)Nc2cc(C#Cc3nccc4cnc(Nc5ccc(S(C)(=N)=O)cc5C)cc34)ccc21` (single isomer, unassigned) [Ex 336, 3,3-diethyl-6-((7-((2-methyl-4-(S-methylsulfonimidoyl)phenyl)amino)-2,6-naphthyridin-1-yl)ethynyl)indolin-2-one], for which the IC50 was 25 to 250 nM in experiment [1] (setting [10]), over 250 nM in experiment [2] (setting [6]), over 250 nM in experiment [3] (setting [7]) and under 25 nM in experiment [4] (setting [9]).
For the compound `CCC1(CC)C(=O)Nc2cc(C#Cc3nccc4cnc(Nc5ccc(S(=N)(=O)C6CC6)cc5)cc34)ccc21` (single isomer, unassigned) [Ex 339, 6-((7-((4-(cyclopropanesulfonimidoyl)phenyl)amino)-2,6-naphthyridin-1-yl)ethynyl)-3,3-diethylindolin-2-one], the IC50 in experiment [1] (setting [10]) is 25 to 250 nM; in experiment [2] (setting [6]) it was over 250 nM; in experiment [3] (setting [7]), over 250 nM; in experiment [4] (setting [9]), under 25 nM.
For `CCC1(CC)C(=O)Nc2cc(C#Cc3nccc4cnc(Nc5ccc(S(=N)(=O)C(C)C)cc5OC)cc34)ccc21` (single isomer, unassigned) [Ex 340, 3,3-diethyl-6-((7-((2-methoxy-4-(propan-2-ylsulfonimidoyl)phenyl)amino)-2,6-naphthyridin-1-yl)ethynyl)indolin-2-one], the IC50 is over 250 nM in experiment [1] (setting [5]), over 250 nM in experiment [2] (setting [6]), over 250 nM in experiment [3] (setting [7]) and under 25 nM in experiment [4] (setting [9]).

(Values after patent US20260325533A1, “CDK INHIBITOR COMPOUNDS” (ALEKSIA THERAPEUTICS, INC., priority 2023, published 2026).)
